Test results: patent publication US8691864B2, “Agents useful for reducing amyloid precursor protein and treating dementia and methods of use thereof” (priority 2000, dated 2014)

Columns and labels:
βAPP = βAPP protein levels in U373 MG astrocytoma cells, western blot; type: cell-based; conditions: FIGS. 6A-C, alone or with PD98059 or LY294002
Description: SK-N-SH neuroblastoma cells were cultured on 60 mm dishes at a concentration of 3×10^6 cells, and SH-SY-5Y neuroblastoma and U373 astrocytorna cell lines were plated in 100 mm dishes at a concentration of 3×10^5 cells. The cells were allowed to grow in complete medium ([…], 2 mM glutamine in DMEM) for 3 to 4 days until they reached 70% confluence. To start the experiment, spent medium was removed and replaced with fresh medium (SKNSH—4 ml of DMEM+0.5% FBS; U373—5 ml of DMEM+2.5% FBS) containing 0, 5, or 50 μM phenserine. The cells were incubated at 37° C., 5% CO2 for the specific times indicated. Different media and sera were purchased from Life Technologies (Gaithersberg, Md.). […]
At each time point, the spent medium was collected and stored at −70° C. for later analysis of secretory βAPP levels. The cells were washed twice with PBS, pH 7.4 and incubated on ice for 15 min for lysis with 100 μL of lysis buffer (20 mM HEPES, 2 mM EGTA, 50 mM (β-glycophosphate, 1 mM sodium orthovanadate, 1% Triton X-100, 10% glycerol) containing appropriate protease inhibitors (2 mM PMSF, 100 μg/mL aprotinin, 25 μM leupeptin and 20 μg/mL soybean trypsin inhibitor). Each lysate was microcentrifuged for 15 min at 14 000 rpm. Protein levels of the supernatant were analyzed by the Bradford protein assay (BioRad, Melville, N.Y.). […]

Aβ1-40 = Aβ1-40 levels in cerebral cortex of transgenic mice, ELISA; type: in vivo; conditions: formic acid extraction, 3 weeks daily
Description: Greater reductions could be achieved, but, as previously reported, doses of >5 mg/kg produce cholinergic side effects for the (−)-enantiomer but not for the (+)-enantiomer.
Samples of cerebral cortex from the transgenic mice then were analyzed for β amyloid peptide (Aβ) levels. Specifically, Aβ1-40 and Aβ1-42 levels, following formic acid extraction, were determined by ELISA assay (Suzuki et al., 1994).

CN1CC[C@@]2(C)c3cc(OC(=O)Nc4ccccc4)ccc3N(C)[C@@H]12 [(−)-phenserine]
reduction of βAPP protein levels, densitometric quantification (βAPP): > 25% | reduction of Aβ1-40 levels (Aβ1-40): 68%
